Laboratory results published in patent US12005064B2, “Pharmaceutical composition comprising non-ionic surfactants” (priority 2014, dated 2024).

Key:
Solubility in water = assay type: physicochemical; settings: across the whole pH range
Solubility in excipients = assay type: physicochemical; settings: diverse set of excipients, covering an HLB range of 1 to 20 and above

## CCc1cc2c(cc1N1CCC(N3CCOCC3)CC1)C(C)(C)c1[nH]c3cc(C#N)ccc3c1C2=O [9-ethyl-6,6-dimethyl-8-(4-morpholin-4-yl-piperidin-1-yl)-11-oxo-6,11-dihydro-5H-benzo[b]carbazole-3-carbonitrile]
Solubility in water
  solubility in water: practically insoluble in water
Solubility in excipients
  solubility in excipients: poorly soluble
